# Test results: US20070149553A1, “Mitotic kinesin inhibitors” (priority 2003, published 2007)
# Target: T1, human KSP motor domain (Homo sapiens, UniProt P52732)
# T1 construct: were used to amplify the motor domain and the neck linker region; made in house; host or cells: E. coli BL21 (DE3)
# T1 sequence (P52732 18-359 limits assumed): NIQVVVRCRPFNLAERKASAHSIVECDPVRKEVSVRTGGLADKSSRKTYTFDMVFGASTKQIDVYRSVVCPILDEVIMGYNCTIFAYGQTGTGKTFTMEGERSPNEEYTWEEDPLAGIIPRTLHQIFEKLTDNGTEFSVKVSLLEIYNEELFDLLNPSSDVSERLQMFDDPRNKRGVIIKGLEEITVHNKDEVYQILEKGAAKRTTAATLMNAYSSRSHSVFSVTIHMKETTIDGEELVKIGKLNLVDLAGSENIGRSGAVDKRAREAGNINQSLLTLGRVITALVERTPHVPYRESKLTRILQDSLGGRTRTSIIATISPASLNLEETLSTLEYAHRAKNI
# Test: Kinesin ATPase In Vitro Assay
# Type: biochemical
# Conditions: human poly-histidine tagged KSP motor domain (KSP(367H)), microtubules, 1 mM ATP, 23° C.
# From the text: I. Kinesin ATPase In Vitro Assay
# Cloning and Expression of Human Poly-Histidine Tagged KSP Motor Domain (KSP(367H))
# Plasmids for the expression of the human KSP motor domain construct were cloned by PCR using a pBluescript full length human KSP construct (Blangy et al., Cell, vol. 83, pp 1159-1169, 1995) as a template. The N-terminal primer 5′-[…] (SEQ. ID. NO.: 1) and the C-terminal primer 5′-[…] […] (SEQ. ID. NO.: 2) were used to amplify the motor domain and the neck linker region. The PCR products were digested with AseI and XhoI, ligated into the NdeI/XhoI digestion product of pRSETa (Invitrogen) and transformed into E. coli BL21 (DE3).
# Cells were grown at 37° C. to an OD600 of 0.5. […]
# The kinesin motor domain is incubated with microtubules, 1 mM ATP (1:1 MgCl2: Na-ATP), and compound at 23° C. in buffer containing 80 mM K-HEPES (pH 7.0), 1 mM EGTA, 1 mM DTT, 1 mM MgCl2, and 50 mM KCl. […] Free phosphate from the ATP hydrolysis reaction is measured via a quinaldine red/ammonium molybdate assay by adding 150 μl of quench C buffer containing a 2:1 ratio of quench A:quench B. Quench A contains 0.1 mg/ml quinaldine red and 0.14% polyvinyl alcohol; quench B contains 12.3 mM ammonium molybdate tetrahydrate in 1.15 M sulfuric acid. The reaction is incubated for 10 minutes at 23° C., and the absorbance of the phospho-molybdate complex is measured at 540 nm.
smiles,measurement,value
"Cc1ccc(-n2c(-c3ccccc3Br)nc3sccc3c2=O)cc1 [1-4, 2-(2-bromophenyl)-3-(4-methylphenyl)thieno[2,3-d]pyrimidin-4(3H)-one]",IC50,≤ 50 µM
